Reference: PMC5388777 (Frontiers in Psychiatry, 2017)
Where “and” joins values, the source holds several entries; their conditions need not be identical. Equal entries are not always repeated.

Experiments:
male ICR mice [1] = assay: Tail flick assay (thermal nociception); format: in vivo; settings: for Tail flick latency after antagonist alone: given 24 h before vehicle, JDTic 10 mg/kg, beta-FNA 40 mg/kg s.c.; for Antinociception (%MPE) versus vehicle: 60-min post-injection, s.c., PPL-101 0.3-10 mg/kg, PPL-103 0.3-3 mg/kg
male Sprague-Dawley rats [2] = assay: Plantar test (paw withdrawal latency); format: in vivo; settings: U-69,593 0.3 mg/kg
kappa opioid receptor [3] = target: T1, kappa opioid receptor (Homo sapiens, UniProt P41145); assay: biochemical
T1 construct: expressed in transfected cells; membranes prepared
T1 sequence (P41145 whole entry): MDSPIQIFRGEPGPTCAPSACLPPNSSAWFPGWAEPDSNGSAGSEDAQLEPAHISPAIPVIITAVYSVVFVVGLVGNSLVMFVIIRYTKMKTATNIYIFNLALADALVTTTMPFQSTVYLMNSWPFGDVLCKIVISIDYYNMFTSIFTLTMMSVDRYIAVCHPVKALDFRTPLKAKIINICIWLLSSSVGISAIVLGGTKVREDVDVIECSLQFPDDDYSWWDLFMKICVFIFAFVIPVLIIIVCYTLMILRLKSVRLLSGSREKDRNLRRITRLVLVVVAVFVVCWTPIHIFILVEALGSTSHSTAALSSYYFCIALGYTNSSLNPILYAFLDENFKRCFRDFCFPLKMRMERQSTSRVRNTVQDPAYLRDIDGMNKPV

delta opioid receptor [4] = target: T2, delta opioid receptor (Homo sapiens, UniProt P41143); assay: biochemical; settings: Receptor binding Ki
T2 construct: expressed in transfected cells; membranes prepared
T2 sequence (P41143 whole entry): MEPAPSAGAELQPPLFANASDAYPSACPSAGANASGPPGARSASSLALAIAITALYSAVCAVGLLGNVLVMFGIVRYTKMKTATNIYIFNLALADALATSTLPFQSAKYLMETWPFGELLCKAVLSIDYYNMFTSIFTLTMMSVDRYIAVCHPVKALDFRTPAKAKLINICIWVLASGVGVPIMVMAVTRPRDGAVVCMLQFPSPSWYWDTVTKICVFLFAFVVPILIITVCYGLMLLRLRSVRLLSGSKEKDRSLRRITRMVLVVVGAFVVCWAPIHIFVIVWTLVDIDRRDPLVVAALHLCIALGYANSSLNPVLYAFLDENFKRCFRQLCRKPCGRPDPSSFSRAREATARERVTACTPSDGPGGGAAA

male Sprague-Dawley rats [5] = assay: Intravenous self-administration (FR-1 and PR schedules)
male ICR mice [6] = assay: Conditioned place preference (CPP) paradigm; format: in vivo; settings: s.c., three drug sessions; morphine 15 mg/kg, PPL-101 1-3 mg/kg, PPL-103 0.3-3 mg/kg
non-human primates = settings: ref Harris et al. unpublished observation; cited from earlier work
delta opioid receptor [7] = target: T2, delta opioid receptor; assay: [35S]GTPγS binding, CHO cell membranes; format: biochemical; settings: for Delta % Stim.: [35S]GTPγS binding, mean ± SEM
male ICR mice [8] = assay: Global activity during CPP conditioning; format: in vivo; settings: s.c.; for Global activity versus vehicle controls: morphine 15 mg/kg (first injection), PPL-101 and PPL-103 3.0 mg/kg (first and third injections)
kappa opioid receptor [9] = target: T1, kappa opioid receptor; assay: biochemical; settings: Receptor binding Ki
mu opioid receptor = target: T3, mu opioid receptor (Homo sapiens, UniProt P35372); format: biochemical
T3 construct: expressed in transfected cells; membranes prepared
T3 sequence (P35372 whole entry): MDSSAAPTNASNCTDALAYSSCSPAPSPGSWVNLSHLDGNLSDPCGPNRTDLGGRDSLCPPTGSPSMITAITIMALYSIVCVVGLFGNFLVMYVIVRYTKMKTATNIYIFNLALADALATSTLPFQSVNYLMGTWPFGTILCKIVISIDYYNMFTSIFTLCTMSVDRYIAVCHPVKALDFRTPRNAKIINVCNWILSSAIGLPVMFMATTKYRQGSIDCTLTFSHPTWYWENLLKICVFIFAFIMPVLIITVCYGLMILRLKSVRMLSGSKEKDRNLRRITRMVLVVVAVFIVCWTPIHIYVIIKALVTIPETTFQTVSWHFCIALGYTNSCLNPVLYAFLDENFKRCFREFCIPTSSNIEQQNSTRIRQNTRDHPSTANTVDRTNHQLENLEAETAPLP

Compound | Tail flick latency after antagonist alone (male ICR mice [1]) | Kappa % Stim. (kappa opioid receptor [3]) | Ki (delta opioid receptor [4]) | Antinociception (%MPE) versus vehicle (male ICR mice [1]; morphine 15 mg/kg) | Acquisition of CPP (difference score) versus vehicle controls (male ICR mice [6]) | Delta % Stim. (delta opioid receptor [7]) | Global activity versus vehicle controls (male ICR mice [8]) | Ki (kappa opioid receptor [9]) | Mu % Stim. (mu opioid receptor) | other results
CC(C)[C@@H](CN1CC[C@@](C)(c2cccc(O)c2)[C@@H](C)C1)NC(=O)[C@H]1Cc2ccc(O)cc2CN1 [JDTic, (3R)-7-hydroxy-N-[(1S)-1-[[(3R,4R)-4-(3-hydroxyphenyl)-3,4-dimethyl-1-piperidinyl]methyl]-2-methylpropyl]-1,2,3,4-tetrahydro-3-isoquinoline-carboxamide] | have no effect on tail flick latency in mice | – | – | – | – | – | – | – | – | Blockade of U-69,593-induced antinociception (male Sprague-Dawley rats [2]; JDTic 10 mg/kg single dose): able to block the antinociceptive effect U-69,593; Antinociception (paw withdrawal latency) (male Sprague-Dawley rats [2]; JDTic 10 mg/kg single treatment one week before): by itself did not
CC(C1CC1)N1CCC23CCCCC2C1Cc1ccc(O)cc13 (stereo not drawn) [PPL-103, α-methyl-cyclopropylmethyl-morphinan] | – | 39.8 ± 3.9% | 0.29 ± 0.03 nM | potent antinociception at all doses tested | did not reveal any significant difference | 41.7 ± 5.0% | decreases in global activity relative to vehicle controls following the first and third drug injections | 2.47 ± 0.105 nM | – | EC50 (kappa opioid receptor [3]): 9.01 ± 2.64 nM; Dose giving maximal antinociception equivalent to morphine, as fraction of morphine's dose (male ICR mice [1]; mice): 1/10; Number of infusions under PR schedule (male Sprague-Dawley rats [5]; 30-100 µg/kg/infusion i.v., versus morphine 100 µg/kg/infusion): significantly decreased compared to the morphine group; Self-administration under FR-1 schedule when substituted for morphine (male Sprague-Dawley rats [5]; 30 and 100 µg/kg/infusion i.v., versus morphine 100 µg/kg/infusion): markedly decreased as compared to responses for morphine across all test sessions; Substitution for morphine in single-dose suppression test (non-human primates): substituted for morphine; EC50 (delta opioid receptor [7]): 2.99 ± 0.92 nM
CN1CC[C@]23c4c5ccc(O)c4O[C@H]2[C@@H](O)C=C[C@H]3[C@H]1C5 [Morphine, reference compound] | – | – | – | produced the maximal effect in increase in tail flick relative to vehicle controls | exhibited a significant CPP | – | increase in global activity after the first drug injection relative to vehicle controls | – | – | Time course of antinociception (%MPE) versus vehicle (male ICR mice [1]; 0.5, 1, 2, 4 h post-injection, PPL-101 0.3-10 mg/kg s.c., morphine 15 mg/kg): anticipated increase in %MPE at all the time points compared to vehicle controls; Effect of JDTic pretreatment on the compound's antinociception (male ICR mice [1]; JDTic 10 mg/kg s.c. 24 h before): not altered by the kappa antagonist JDTic; Effect of beta-FNA pretreatment on the compound's antinociception (male ICR mice [1]; beta-FNA 40 mg/kg s.c. 24 h before): completely inhibited by the mu opioid antagonist beta-FNA; Effect of JDTic on self-administration of the compound (male Sprague-Dawley rats [5]; 100 µg/kg/infusion, FR1TO20, JDTic 10 mg/kg i.p., seven sessions versus baseline): no significant effect of JDTic on morphine self-administration; Average responses on the morphine-associated lever (male Sprague-Dawley rats [5]; 100 µg/kg/infusion, last 3 days prior to PPL-101 self-administration, mean ± SEM): 29.0 ± 5.8 and 27.2 ± 6.1 and 32.2 ± 12.6; Global activity after third versus first drug injection (male ICR mice [8]; morphine 15 mg/kg, PPL-101 3 mg/kg): increase in activity following the third drug injection relative to the first drug injection
C[C@H]1[C@H]2Cc3ccc(O)cc3[C@]1(C)CCN2CC1CC1 [Cyclazocine, cycloproplymethyl-benzomorphan, reference compound] | – | 80 ± 9% | 0.8 ± 0.05 nM | – | – | 82 ± 9% | – | 0.1 ± 0.02 nM | 33 ± 18% | –
C[C@@H](NC(=O)[C@@H](N)Cc1ccc(O)cc1)C(=O)NCC(=O)N(C)[C@@H](Cc1ccccc1)C(=O)NCCO [DAMGO, [D-Ala2, N-MePhe4, Gly-ol]-enkephalin, reference compound] | – | 62 ± 21.0% | – | – | – | – | – | – | 100% | –
COC(=O)C=CC(=O)NC1CCC2(O)C3Cc4ccc(O)c5c4C2(CCN3CC2CC2)C1O5.Cl (stereo not drawn) [beta-FNA, beta-funaltrexamine HCl, reference compound] | have no effect on tail flick latency in mice | – | – | – | – | – | – | – | – | –
